For 25 molecules, IC50 results are on record in patent publication US20200069691A1, “HETEROCYCLIC COMPOUNDS AS HIV PROTEASE INHIBITORS” (Merck Sharp & Dohme Corp., priority 2016, published 2020).

This assay concerns the target T1, wild-type HIV-1 protease (Human immunodeficiency virus type 1 group M subtype B, UniProt P04585).
T1 construct: Escherichia coli expressed wild-type HIV-1 protease protein
The experiment in a line: Assay for Inhibition of Microbial Expressed HIV Protease (peptide substrate cleavage, LC-MS/MS readout). It is filed as biochemical. Conditions: E. coli expressed wild-type HIV-1 protease, mean of at least two independent experiments, read-out: HIV Pr Enzyme HIV1 PR IC50. In short, it runs like this:
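Cleavage of Val-Ser-Gln-Asn-(β-naphthyl)Ala-Pro-Ile-Val (400 μM) by recombinant HIV-1 protease ([…]) ran 1 h at 30 °C after a 30 min room-temperature inhibitor preincubation in 50 mM sodium acetate pH 5.5. Product peak areas by LC-MS/MS gave inhibition; values average at least two independent runs.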

Molecules are shown by their SMILES.

The IC50 is the concentration at which inhibition is half-maximal. On to `N=C1N[C@](CCC2CC2)(c2ccc(F)cc2)C(=O)N1[C@@H]1CCCCc2ccc(C(=O)N3Cc4nccnc4C3)cc21` [Compound 93, (5R)-5-(2-cyclopropylethyl)-3-[(5R)-3-(5,7-dihydro-6H-pyrrolo-[3,4-b]pyrazin-6-ylcarbonyl)-6,7,8,9-tetrahydro-5H-benzo-[7]annulen-5-yl]-5-(4-fluoro-phenyl)-2-iminoimidazolidin-4-one], for which the IC50 worked out at 0.0185 µM.

For `N=C1NC(c2ccccc2)(c2ccccc2)C(=O)N1Cc1ccc(C(F)(F)F)c(C(=O)N2CCN(c3ncccn3)CC2)c1` [Compound 171, 2-imino-5,5-diphenyl-3-{3-[(4-pyrimidin-2-ylpiperazin-1-yl)carbonyl]-4-(trifluoromethyl)-benzyl}imidazolidin-4-one], the IC50 was 0.053 µM.

On to `N=C1N[C@](CCC2CC2)(c2ccc(F)cc2)C(=O)N1C(CN1CCCC1=O)c1ccc(C(F)(F)F)c(C(=O)N2Cc3nccnc3C2)c1` (stereo partly drawn) [Compound 7, (5R)-5-(2-cyclopropylethyl)-3-{1-[3-(5,7-dihydro-6H-pyrrolo[3,4-b]pyrazin-6-ylcarbonyl)-4-(trifluoromethyl)phenyl]-2-(2-oxopyrrolidin-1-yl)ethyl}-5-(4-fluorophenyl)-2-iminoimidazolidin-4-one], for which the half-maximal inhibitory concentration (IC50) was 0.00039 µM.

For `N=C1NC(c2ccc(F)cc2)(c2ccc(F)cc2)C(=O)N1Cc1cccc(C(=O)N2CCC(n3c(=O)[nH]c4nc(F)ccc43)CC2)c1` [Compound 316, 1-{1-[(3-{[4,4-bis(4-fluorophenyl)-2-imino-5-oxoimidazolidin-1-yl]methyl}phenyl)carbonyl]piperidin-4-yl}-5-fluoro-1,3-dihydro-2H-imidazo[4,5-b]pyridin-2-one], the IC50 was 0.0529 µM.

Turning to `Cc1noc2ccc(-c3ncc4c(n3)CN(C(=O)c3cc(CN5C(=N)N[C@](CCCC(F)(F)F)(c6ccc(F)cc6)C5=O)ccc3C(F)(F)F)C4)cc12` [Compound 64, (5R)-5-(4-fluorophenyl)-2-imino-3-[3-{[2-(3-methyl-1,2-benzisoxazol-5-yl)-5,7-dihydro-6H-pyrrolo[3,4-d]pyrimidin-6-yl]carbonyl}-4-(trifluoromethyl)benzyl]-5-(4,4,4-trifluorobutyl)imidazolidin-4-one], the half-maximal inhibitory concentration (IC50) stood at 0.00709 µM.

For the molecule `CC(C)CCC1(c2cccc(-c3cccnc3)c2)NC(=N)N(Cc2cccc(C(=O)N3Cc4nccnc4C3)c2)C1=O` (stereo not shown) [Compound 304, 3-[3-(5,7-dihydro-6H-pyrrolo[3,4-b]pyrazin-6-ylcarbonyl)benzyl]-2-imino-5-(3-methylbutyl)-5-(3-pyridin-3-ylphenyl)imidazolidin-4-one], the IC50 stood at 0.0459 µM.

In the case of `CC(C)Nc1ncc2c(n1)CN(C(=O)c1cc(CN3C(=N)N[C@](CCCC(F)(F)F)(c4ccc(F)cc4)C3=O)ccc1C(F)(F)F)C2` [Compound 51, (5R)-5-(4-fluorophenyl)-2-imino-3-[3-({2-[(1-methylethyl)amino]-5,7-dihydro-6H-pyrrolo[3,4-d]pyrimidin-6-yl}carbonyl)-4-(trifluoromethyl)benzyl]-5-(4,4,4-trifluorobutyl)imidazolidin-4-one], the IC50 is 0.00551 µM.

`N#Cc1ncc2c(n1)CN(C(=O)c1cccc(CN3C(=N)NC(c4ccccc4)(c4ccccc4)C3=O)c1)C2` [Compound 199, 6-({3-[(2-imino-5-oxo-4,4-diphenylimidazolidin-1-yl)methyl]phenyl}carbonyl)-6,7-dihydro-5H-pyrrolo[3,4-d]pyrimidine-2-carbonitrile]: the half-inhibitory concentration (IC50) is 0.00559 µM.

As for `COC(=O)N1CCN(C(=O)c2cccc(CN3C(=N)NC(CCC(C)C)(c4ccccc4)C3=O)c2)CC1` (stereo not shown) [Compound 255, methyl 4-[(3-{[2-imino-4-(3-methylbutyl)-5-oxo-4-phenylimidazolidin-1-yl]methyl}phenyl)carbonyl] piperazine-1-carboxylate], the IC50 was 0.0209 µM.

`CC(C)CCC1(c2cccc(-c3cccnc3)c2)NC(=N)N(Cc2cccc(C(=O)N3Cc4ccccc4C3)c2)C1=O` (stereo not shown) [Compound 277, 3-[3-(1,3-dihydro-2H-isoindol-2-ylcarbonyl)benzyl]-2-imino-5-(3-methylbutyl)-5-(3-pyridin-3-ylphenyl)imidazolidin-4-one]: the concentration for half-maximal inhibition (IC50) was 0.0298 µM.

Regarding `COC(=O)Nc1ncc2c(n1)CN(C(=O)c1cc([C@@H](C)N3C(=N)N[C@](CCC(C)C)(c4ccccc4)C3=O)ccc1C(F)(F)F)C2` [Compound 135, methyl (6-{[5-{(1R)-1-[(4R)-2-imino-4-(3-methylbutyl)-5-oxo-4-phenylimidazolidin-1-yl]ethyl}-2-(trifluoromethyl)phenyl]carbonyl}-6,7-dihydro-5H-pyrrolo[3,4-d]pyrimidin-2-yl)carbamate], the IC50 was found to be 0.00128 µM.

As to `CC(C)NC(=O)N1CCN(C(=O)c2cc(F)cc(CN3C(=N)NC(c4ccccc4)(c4ccccc4)C3=O)c2)CC1` [Compound 293, 4-({3-fluoro-5-[(2-imino-5-oxo-4,4-diphenylimidazolidin-1-yl)methyl]phenyl}carbonyl)-N-(1-methylethyl) piperazine-1-carboxamide], the half-inhibitory concentration (IC50) stood at 0.0392 µM.

Consider `CC(C)CCC1(c2ccccc2)NC(=N)N(Cc2ccc(C(F)(F)F)c(C(=O)N3Cc4cnc(C#N)nc4C3)c2)C1=O` (stereo not shown) [Compound 148, 6-{[5-{[2-imino-4-(3-methylbutyl)-5-oxo-4-phenylimidazolidin-1-yl]methyl}-2-(trifluoromethyl)phenyl]carbonyl}-6,7-dihydro-5H-pyrrolo[3,4-d]pyrimidine-2-carbonitrile], for which the IC50 amounted to 0.00521 µM.

As to `CC(C)CC1(c2ccccc2)NC(=N)N(Cc2ccc(C(F)(F)F)c(C(=O)N3Cc4cnc(C#N)nc4C3)c2)C1=O` (stereo not shown) [Compound 140, 6-{[5-{[2-imino-4-(2-methylpropyl)-5-oxo-4-phenylimidazolidin-1-yl]methyl}-2-(trifluoromethyl)phenyl]carbonyl}-6,7-dihydro-5H-pyrrolo[3,4-d]pyrimidine-2-carbonitrile], the IC50 amounted to 0.00293 µM.

Regarding `N=C1NC(c2ccccc2)(c2ccc(-c3ccc(F)cc3)cc2)C(=O)N1Cc1cccc(C(=O)N2Cc3nccnc3C2)c1` (stereo not shown) [Compound 201, 3-[3-(5,7-dihydro-6H-pyrrolo[3,4-b]pyrazin-6-ylcarbonyl)benzyl]-5-(4′-fluorobiphenyl-4-yl)-2-imino-5-phenylimidazolidin-4-one], the IC50 turned out to be 0.00632 µM.

For `N=C1NC(c2ccccc2)(c2ccccc2)C(=O)N1Cc1cccc(C(=O)N2CCN(c3ccccc3Cl)CC2)c1` [Compound 238, 3-(3-{[4-(2-chlorophenyl)piperazin-1-yl]carbonyl}benzyl)-2-imino-5,5-diphenylimidazolidin-4-one], the IC50 is 0.015 µM.

Take `CC(C)CCC1(c2ccccc2)NC(=N)N(Cc2cccc(C(=O)N3Cc4nccnc4C3)c2)C1=O` (stereo not shown) [Compound 208, 3-[3-(5,7-dihydro-6H-pyrrolo[3,4-b]pyrazin-6-ylcarbonyl)benzyl]-2-imino-5-(3-methylbutyl)-5-phenylimidazolidin-4-one]: the IC50 amounted to 0.0352 µM.

On to `CN(C)C(=O)N1CCN(C(=O)c2cc(F)cc(CN3C(=N)NC(c4ccccc4)(c4ccccc4)C3=O)c2)CC1` [Compound 309, 4-({3-fluoro-5-[(2-imino-5-oxo-4,4-diphenylimidazolidin-1-yl)methyl]phenyl}carbonyl)-N,N-dimethylpiperazine-1-carboxamide], for which the half-maximal inhibitory concentration (IC50) was determined as 0.122 µM.

In the case of `CC(C)CC[C@]1(c2ccccc2)NC(=N)N([C@@H]2CCCc3ccc(C(=O)N4Cc5nccnc5C4)cc32)C1=O` [Compound 124, (5R)-3-[(1R)-7-(5,7-dihydro-6H-pyrrolo[3,4-b]pyrazin-6-ylcarbonyl)-1,2,3,4-tetrahydro-naphthalen-1-yl]-2-imino-5-(3-methylbutyl)-5-phenylimidazolidin-4-one], the IC50 amounted to 0.057 µM.

In the case of `N=C1NC(c2ccccc2)(c2ccccc2)C(=O)N1Cc1cc(C(=O)N2Cc3nccnc3C2)ccn1` [Compound 399, 3-{[4-(5,7-dihydro-6H-pyrrolo[3,4-b]pyrazin-6-ylcarbonyl)pyridin-2-yl]methyl}-2-imino-5,5-diphenylimidazolidin-4-one], the half-inhibitory concentration (IC50) turned out to be 0.0204 µM.

`CC(C)CC1(c2ccccc2)NC(=N)N(Cc2cccc(C(=O)N3Cc4nccnc4C3)c2)C1=O` (stereo not shown) [Compound 235, 3-[3-(5,7-dihydro-6H-pyrrolo[3,4-b]pyrazin-6-ylcarbonyl)benzyl]-2-imino-5-(2-methylpropyl)-5-phenylimidazolidin-4-one]: the half-maximal inhibitory concentration (IC50) was 0.0144 µM.

For `N=C1NC(c2ccccc2)(c2ccccc2)C(=O)N1Cc1cccc(C(=O)N2CCc3cc(F)ccc3C2)c1` [Compound 308, 3-{3-[(6-fluoro-3,4-dihydroisoquinolin-2(1H)-yl)carbonyl]benzyl}-2-imino-5,5-diphenylimidazolidin-4-one], the 50% inhibitory concentration (IC50) was 0.049 µM.

As to `CN1CCOc2cc(-c3ncc4c(n3)CN(C(=O)c3cc(CN5C(=N)N[C@](CCCC(F)(F)F)(c6ccc(F)cc6)C5=O)ccc3C(F)(F)F)C4)cnc21` [Compound 45, (5R)-5-(4-fluorophenyl)-2-imino-3-[3-{[2-(4-methyl-3,4-dihydro-2H-pyrido[3,2-b][1,4]oxazin-7-yl)-5,7-dihydro-6H-pyrrolo[3,4-d]pyrimidin-6-yl]carbonyl}-4-(trifluoromethyl)benzyl]-5-(4,4,4-trifluorobutyl)imidazolidin-4-one], the IC50 was 0.0046 µM.

In the case of `CC(C)CCC1(c2ccc(F)cc2)NC(=N)N(Cc2ccc(C(F)(F)F)c(C(=O)N3Cc4cncnc4C3)c2)C1=O` (stereo not shown) [Compound 144, 3-[3-(5,7-dihydro-6H-pyrrolo[3,4-d]pyrimidin-6-ylcarbonyl)-4-(trifluoromethyl)benzyl]-5-(4-fluorophenyl)-2-imino-5-(3-methylbutyl)imidazolidin-4-one], the half-maximal inhibitory concentration (IC50) stood at 0.00373 µM.

Consider `COC(=O)N1CCN(C(=O)c2cccc(CN3C(=N)NC(c4ccc(F)cc4)(c4cccc(C#N)c4)C3=O)c2)CC1` (stereo not shown) [Compound 350, methyl 4-[(3-{[4-(3-cyanophenyl)-4-(4-fluorophenyl)-2-imino-5-oxoimidazolidin-1-yl]methyl}phenyl)carbony1] piperazine-1-carboxylate], for which the half-maximal inhibitory concentration (IC50) was 0.0853 µM.
